Experimental data from patent publication US20120083861A1, “SELECTIVE ACTIVATION OF NEURONS BY SINUSOIDAL ELECTRIC STIMULATION” (THE GENERAL HOSPITAL CORPORATION, priority 2010, published 2012).
Entries after “also recorded” stand apart in the source; their conditions may differ.

Test system: retinal ganglion cells
Test: Ganglion cell spiking response to electric stimulation near the soma with synaptic transmission blocked pharmacologically (cell-attached patch clamp, isolated retina)
Format: cell-based, rabbit
Settings: for maximum number of elicited spikes in control versus with synaptic blocker: 1 sec, plot control (x) vs blocker (y), FIG. 5c, 5d; for response to 10-Hz stimulation (spikes elicited): 10 Hz sinusoidal stimulus near soma; for stimulus threshold in blocker relative to control / effect of the blockers on stimulus threshold: 50 μM CNQX or 100 μM CdCl2, paired t-test; for response to 25-Hz stimulation (spikes elicited): 25 Hz sinusoidal stimulus near soma; for synaptically mediated response of ganglion cells to stimulation: stimulation at 5-25 Hz
Method: The present invention provides for responses to LFSS that are synaptic in origin. To determine whether presynaptic activation played a significant role in the high sensitivity of the soma region to LFSS, the response to stimulation near the soma was measured while synaptic transmission was blocked pharmacologically. The primary source of excitatory input to ganglion cells arises via glutamatergic release from the axon terminals of bipolar cells and is mediated through AMPA/kainate receptors on the ganglion cell dendrites.
The care and use of animals followed all federal and institutional guidelines, and all protocols were approved by the Institutional Animal Care and Use Committees of the Boston VA Healthcare System and/or the Subcommittee of Research Animal Care of the Massachusetts General Hospital. New Zealand White Rabbits (˜2.5 kg) were anesthetized with injections of xylazine/ketamine and subsequently euthanized with an intracardial injection of pentobarbital sodium. Immediately after death, the eyes were removed. All procedures following eye removal were performed under dim red illumination. The front of the eye was removed, the vitreous was eliminated. The retina was separated from the retinal pigment epithelium and mounted, photoreceptor side down, to a 10-mm square piece of Millipore filter paper (0.45 μm HA Membrane Filter) that was mounted with vacuum grease to the recording chamber (˜1.0 ml volume). A 2-mm circle in the center of the Millipore paper allowed light from below to be projected on to the photoreceptors.
Patch pipettes were used to make small holes in the inner limiting membrane, and ganglion cells with large somata were targeted under visual control. Spiking was recorded with a cell-attached patch electrode (4-8MΩ) filled with superfusate. For whole-cell recordings, the patch electrode was filled with (in mM): 113 CsMeSO4, 1 MgSO4, 7.8×10^−3 CaCl2, 0.1 BABTA, 10 HEPES, 4 ATP-Na2, 0.5 GTP-Na3, 5 lidocaine N-ethyl bromide (QX314-BR), 7.5 neurobiotin chloride, pH 7.2. […] Two silver-chloride coated silver wires served as the ground and were positioned at opposite edges of the recording chamber each approximately 15 mm from the targeted cell. The retina was continuously perfused at 4 mL/min with Ames' (pH 7.4) at 36° C., equilibrated with 95% O2 and 5% CO2. Pharmacological agents were applied to the bath by switching a 3-way stopcock to a 200 mL reservoir of Ames' containing one or more of the following blockers: 50 μM 6-cyano-7-nitroquinoxaline-2,3-dione (CNQX), 100 μM cadmium chloride (CdCl2).
Pulse and sinusoidal stimuli were controlled by Multi-Channel Systems STG2004 hardware and software. Two silver-chloride coated silver wires served as the return; each was positioned approximately 8 mm from the targeted cell and approximately 12 mm from each other. The height of the stimulating electrode remained fixed at 25 μm above the inner limiting membrane. The stimulating electrode was placed either directly over the sodium-channel band on the proximal axon, or ˜1 mm lateral to the soma directly over the distal axon. Because of the use of patch clamp, spikes were clearly visible through the stimulus artifact. The efficacy of various stimulation waveforms (0.2-ms pulses and 5-Hz to 100-Hz sinusoids) was tested for the two different electrode positions.
Pulsatile stimuli were biphasic pulses (equal and opposite rectangular phases) delivered at 10 pulses per second (phase duration: 200 μsec; interphase delay: 10 ms; cathodic phase first). The interphase delay was long enough for the neural response to the cathodic pulse to be completed before the onset of the anodic phase. For each stimulus amplitude, 15-30 pulses were delivered and there was a delay of >5 sec between stimulation epochs. Pulses of this duration and over the range of stimulus amplitudes produced either a single spike or no spike. If a spike was elicited, it immediately followed the cathodal pulse. […]

[1] = single blocker in bath: 50 μM CNQX or 100 μM CdCl2 alone
[2] = single blocker: 50 μM CNQX (n=6) or 100 μM CdCl2 (n=4)

Row | Structure (SMILES) | maximum number of elicited spikes in control versus with synaptic blocker (10-Hz stimulation) | response to 10-Hz stimulation (spikes elicited) (100 μM CdCl2 added to 50 μM CNQX, n=2/2) | response to 10-Hz stimulation (spikes elicited) [1] | stimulus threshold in blocker relative to control (10 Hz stimulation) | response to 25-Hz stimulation (spikes elicited) (CNQX and CdCl2 both present (n=2)) | response to 25-Hz stimulation (spikes elicited) [2] | maximum number of elicited spikes in control versus with synaptic blocker (25 Hz stimulation) | stimulus threshold in blocker relative to control (25 Hz stimulation) | maximum number of elicited spikes in control versus with synaptic blocker (100-Hz stimulation) | effect of the blockers on stimulus threshold (100-Hz stimulation) | synaptically mediated response of ganglion cells to stimulation (cadmium applied in addition to CNQX) | synaptically mediated response of ganglion cells to stimulation (CNQX applied)
1 | [Cl][Cd][Cl] [CdCl2, cadmium chloride] | largely clustered around the x-axis | mostly eliminated | completely eliminated; also recorded: greatly reduced | increased significantly | greatly reduced | greatly reduced | mostly scattered between the line of unity slope and the x-axis | increased significantly | largely clustered around the line of unity slope | not significant | completely abolish | 
2 | N#Cc1cc2c(cc1[N+](=O)[O-])=NC(=O)C(=O)N=2 [CNQX, 6-cyano-7-nitroquinoxaline-2,3-dione] | largely clustered around the x-axis |  | greatly reduced; also recorded: completely eliminated | increased significantly |  | greatly reduced; also recorded: blocks much of this response | mostly scattered between the line of unity slope and the x-axis | increased significantly | largely clustered around the line of unity slope | not significant |  | greatly reduced
